Laboratory results published in ChEMBL document CHEMBL1909046, “DrugMatrix in vitro pharmacology data”.
Where a SMILES comes first, the peptide text is derived from it. Bridges are numbered along the chain shown (N, C = ends). [ ]: non-standard residue; d: D form. The star is where a group is joined. Threoninol(2S,3R) = C[C@@H](O)[C@H](CO)N*

Columns and labels:
[1] = molecular target: Aldo-keto reductase family 1 member B1 (Rattus norvegicus, UniProt P07943); test: biochemical; assay type: tissue-based, Lens of camera-type eye;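 further: inhibition of aldose reductase enzyme activity, measured with DL-glyceraldehyde as the substrate; in other assays of this panel Not Active means under 50% inhibition at 10 µM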
[2] = DRUGMATRIX: GABAA, Chloride Channel, TBOB radioligand binding (ligand: [3H] TBOB); assay type: cell membranes, Rattus norvegicus, Wistar, Cerebral cortex, Membrane; conditions: Not Active = under 50% inhibition at 10 µM
Glycine receptor = Glycine receptor (Rattus norvegicus, UniProt P22771+P24524+P07727+P20781); assay type: cell membranes, Wistar, Spinal cord, Membrane; further: in other assays of this panel Not Active means under 50% inhibition at 10 µM
[3] = molecular target: Sodium-dependent dopamine transporter (Homo sapiens, UniProt Q01959); test: DRUGMATRIX: Dopamine Transporter radioligand binding (ligand: [125I] RTI-55); assay type: cell membranes, CHO-K1, Membrane; conditions: cho-k1; Not Active = under 50% inhibition at 10 µM
Sequence of Sodium-dependent dopamine transporter (Q01959 whole entry): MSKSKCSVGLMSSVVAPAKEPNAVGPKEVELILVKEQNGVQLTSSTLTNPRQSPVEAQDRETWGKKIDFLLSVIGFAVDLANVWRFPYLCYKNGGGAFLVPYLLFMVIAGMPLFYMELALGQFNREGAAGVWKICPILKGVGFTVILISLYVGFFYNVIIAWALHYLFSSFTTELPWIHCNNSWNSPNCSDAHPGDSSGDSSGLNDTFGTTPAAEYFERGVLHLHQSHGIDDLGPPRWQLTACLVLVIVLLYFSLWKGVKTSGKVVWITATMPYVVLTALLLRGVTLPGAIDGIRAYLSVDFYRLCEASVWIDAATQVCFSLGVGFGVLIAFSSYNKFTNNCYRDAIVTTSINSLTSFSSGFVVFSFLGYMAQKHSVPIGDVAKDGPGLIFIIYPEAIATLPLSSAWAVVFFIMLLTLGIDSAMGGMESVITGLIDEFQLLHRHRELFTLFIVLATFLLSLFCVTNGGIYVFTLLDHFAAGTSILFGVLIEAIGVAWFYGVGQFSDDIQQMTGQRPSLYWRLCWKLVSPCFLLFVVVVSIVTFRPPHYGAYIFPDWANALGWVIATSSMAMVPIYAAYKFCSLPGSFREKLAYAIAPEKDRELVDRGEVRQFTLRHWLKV

[4] = molecular target: 5-hydroxytryptamine receptor 1B (Rattus norvegicus, UniProt P28564); assay type: cell membranes, Wistar, Cerebral cortex, Membrane; further: in other assays of this panel Not Active means under 50% inhibition at 10 µM
Sequence of 5-hydroxytryptamine receptor 1B (P28564 whole entry): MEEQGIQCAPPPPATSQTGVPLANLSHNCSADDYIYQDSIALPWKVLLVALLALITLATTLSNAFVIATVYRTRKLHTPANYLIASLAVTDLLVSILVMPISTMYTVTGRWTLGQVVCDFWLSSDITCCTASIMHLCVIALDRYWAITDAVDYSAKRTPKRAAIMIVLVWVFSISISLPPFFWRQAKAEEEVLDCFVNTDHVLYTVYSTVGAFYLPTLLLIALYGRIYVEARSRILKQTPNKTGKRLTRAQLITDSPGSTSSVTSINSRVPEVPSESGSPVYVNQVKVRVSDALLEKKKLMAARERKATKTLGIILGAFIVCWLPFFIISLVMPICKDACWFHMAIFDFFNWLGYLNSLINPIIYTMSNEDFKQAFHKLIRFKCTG

[5] = molecular target: Protein kinase C alpha type (Homo sapiens, UniProt P17252); assay type: cell-based; conditions: sf9;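 further: inhibition of PKCalpha kinase activity measured in an enzyme assay with histone as the phosphorylation substrate; in other assays of this panel Not Active means under 50% inhibition at 10 µM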
[6] = DRUGMATRIX: GABAA, Muscimol, Central radioligand binding (ligand: [3H] Muscimol); assay type: cell membranes, Rattus norvegicus, Wistar, Brain, Membrane; conditions: Not Active = under 50% inhibition at 10 µM

COc1ccccc1C(=O)N1CCC(Cc2ccccc2)CC1
Not Active: IC50 [1] | IC50 [2] | Ki [2] | IC50 (Glycine receptor) | IC50 [3] | IC50 [4] | IC50 [5] | IC50 [6] | Ki [6]

Cc1ccccc1C(=O)N1CCC(Cc2ccccc2)CC1
Not Active: IC50 [1] | IC50 [2] | Ki [2] | IC50 (Glycine receptor) | IC50 [3] | IC50 [4] | IC50 [5] | IC50 [6] | Ki [6]

O=C1CC[C@H](N2C(=O)c3ccccc3C2=O)C(=O)N1
Not Active: IC50 [1] | IC50 [2] | Ki [2] | IC50 (Glycine receptor) | IC50 [3] | IC50 [4] | IC50 [5] | IC50 [6] | Ki [6]

N=C(Nc1ccccc1)Nc1ccccc1
Not Active: IC50 [1] | IC50 [2] | Ki [2] | IC50 (Glycine receptor) | IC50 [3] | IC50 [4] | IC50 [5] | IC50 [6] | Ki [6]

C[C@@H](O)[C@H](CO)NC(=O)[C@@H]1CSSC[C@H](NC(=O)[C@H](N)Cc2ccccc2)C(=O)N[C@@H](Cc2ccccc2)C(=O)N[C@H](Cc2c[nH]c3ccccc23)C(=O)N[C@@H](CCCCN)C(=O)N[C@@H]([C@@H](C)O)C(=O)N1 (H-[dF]CF[dW]KTC-{Threoninol(2S,3R)}; disulfide 2-7)
Not Active: IC50 [1] | IC50 [2] | Ki [2] | IC50 (Glycine receptor) | IC50 [3] | IC50 [4] | IC50 [5] | IC50 [6] | Ki [6]

S=C=Nc1cccc2ccccc12 [1-NAPHTHYLISOTHIOCYANATE]
Not Active: IC50 [1] | IC50 [2] | Ki [2] | IC50 (Glycine receptor) | IC50 [3] | IC50 [4] | IC50 [5] | IC50 [6] | Ki [6]

C[C@](O)(CS(=O)(=O)c1ccc(F)cc1)C(=O)Nc1ccc(C#N)c(C(F)(F)F)c1 [(R)-BICALUTAMIDE]
Not Active: IC50 [1] | IC50 [2] | Ki [2] | IC50 (Glycine receptor) | IC50 [3] | IC50 [4] | IC50 [5] | IC50 [6] | Ki [6]

CCCC(=O)Nc1ccc(OCC(O)CNC(C)C)c(C(C)=O)c1 (centres undefined) [ACEBUTOLOL]
Not Active: IC50 [1] | IC50 [2] | Ki [2] | IC50 (Glycine receptor) | IC50 [3] | IC50 [4] | IC50 [5] | IC50 [6] | Ki [6]

CC(=O)Nc1ccc(O)cc1 [ACETAMINOPHEN]
Not Active: IC50 [1] | IC50 [2] | Ki [2] | IC50 (Glycine receptor) | IC50 [3] | IC50 [4] | IC50 [5] | IC50 [6] | Ki [6]

COc1cc2c(c3oc(=O)c4c(c13)CCC4=O)[C@@H]1C=CO[C@@H]1O2 [AFLATOXIN]
Not Active: IC50 [1] | Ki [1] | IC50 [2] | Ki [2] | IC50 (Glycine receptor) | Ki (Glycine receptor) | IC50 [3] | Ki [3] | IC50 [4] | Ki [4] | IC50 [5] | Ki [5] | IC50 [6] | Ki [6]

N=C(N)NC(=O)c1nc(Cl)c(N)nc1N [AMILORIDE]
Not Active: IC50 [1] | IC50 [2] | Ki [2] | IC50 (Glycine receptor) | IC50 [3] | IC50 [4] | IC50 [5] | IC50 [6] | Ki [6]

Cc1cc(=O)n(-c2ccccc2)n1C [ANTIPYRINE]
Not Active: IC50 [1] | IC50 [2] | Ki [2] | IC50 (Glycine receptor) | IC50 [3] | IC50 [4] | IC50 [5] | IC50 [6] | Ki [6]

CN1C(=O)COc2c(C(=O)NC3CN4CCC3CC4)cc(Cl)cc21 (centres undefined) [AZASETRON]
Not Active: IC50 [1] | IC50 [2] | Ki [2] | IC50 (Glycine receptor) | IC50 [3] | IC50 [4] | IC50 [5] | IC50 [6] | Ki [6]

C[C@H]1C[C@H]2[C@@H]3CCC4=CC(=O)C=C[C@]4(C)[C@@]3(Cl)[C@@H](O)C[C@]2(C)[C@@]1(O)C(=O)CO [BECLOMETHASONE]
Not Active: IC50 [1] | IC50 [2] | Ki [2] | IC50 (Glycine receptor) | IC50 [3] | IC50 [4] | IC50 [5] | IC50 [6] | Ki [6]

CCOC(=O)[C@H](CCc1ccccc1)N[C@H]1CCc2ccccc2N(CC(=O)O)C1=O [BENAZEPRIL]
Not Active: IC50 [1] | IC50 [2] | Ki [2] | IC50 (Glycine receptor) | IC50 [3] | IC50 [4] | IC50 [5] | IC50 [6] | Ki [6]

Nc1c(CC(=O)O)cccc1C(=O)c1ccc(Br)cc1 [BROMFENAC]
Not Active: IC50 [1] | IC50 [2] | Ki [2] | IC50 (Glycine receptor) | IC50 [3] | IC50 [4] | IC50 [5] | IC50 [6] | Ki [6]

CCCCN1CCCCC1C(=O)Nc1c(C)cccc1C.Cl (centres undefined) [BUPIVACAINE HYDROCHLORIDE]
Not Active: IC50 [1] | IC50 [2] | Ki [2] | IC50 (Glycine receptor) | IC50 [3] | IC50 [4] | IC50 [5] | IC50 [6] | Ki [6]

O=C1CC2(CCCC2)CC(=O)N1CCCCN1CCN(c2ncccn2)CC1 [BUSPIRONE]
Not Active: IC50 [1] | IC50 [2] | Ki [2] | IC50 (Glycine receptor) | IC50 [3] | IC50 [4] | IC50 [5] | IC50 [6] | Ki [6]

C[C@@]12C(=O)OC(=O)[C@]1(C)[C@H]1CC[C@@H]2O1 [CANTHARIDIN]
Not Active: IC50 [1] | IC50 [2] | Ki [2] | IC50 (Glycine receptor) | IC50 [3] | IC50 [4] | IC50 [5] | IC50 [6] | Ki [6]

O=NN(CCCl)C(=O)NCCCl [CARMUSTINE]
Not Active: IC50 [1] | IC50 [2] | Ki [2] | IC50 (Glycine receptor) | IC50 [3] | IC50 [4] | IC50 [5] | IC50 [6] | Ki [6]

CC1=C(C(=O)O)N2C(=O)[C@@H](NC(=O)[C@H](N)c3ccccc3)[C@H]2SC1 [CEPHALEXIN ANHYDROUS]
Not Active: IC50 [1] | IC50 [2] | Ki [2] | IC50 (Glycine receptor) | IC50 [3] | IC50 [4] | IC50 [5] | IC50 [6] | Ki [6]

O=C(N[C@H](CO)[C@H](O)c1ccc([N+](=O)[O-])cc1)C(Cl)Cl [CHLORAMPHENICOL]
Not Active: IC50 [1] | IC50 [2] | Ki [2] | IC50 (Glycine receptor) | IC50 [3] | IC50 [4] | IC50 [5] | IC50 [6] | Ki [6]

ClC(Cl)Cl [CHLOROFORM]
Not Active: IC50 [1] | IC50 [2] | Ki [2] | IC50 (Glycine receptor) | IC50 [3] | IC50 [4] | IC50 [5] | IC50 [6] | Ki [6]

C=C1CC[C@H](O)C/C1=C/C=C1\CCC[C@]2(C)[C@@H]([C@H](C)CCCC(C)C)CC[C@@H]12 [CHOLECALCIFEROL]
Not Active: IC50 [1] | IC50 [2] | Ki [2] | IC50 (Glycine receptor) | IC50 [3] | IC50 [4] | IC50 [5] | IC50 [6] | Ki [6]

C[N+](C)(C)CCO.[Cl-] [CHOLINE CHLORIDE]
Not Active: IC50 [1] | IC50 [2] | Ki [2] | IC50 (Glycine receptor) | IC50 [3] | IC50 [4] | IC50 [5] | IC50 [6] | Ki [6]

CCOC(=O)C(C)(C)Oc1ccc(Cl)cc1 [CLOFIBRATE]
Not Active: IC50 [1] | IC50 [2] | Ki [2] | IC50 (Glycine receptor) | IC50 [3] | IC50 [4] | IC50 [5] | IC50 [6] | Ki [6]

CC(=O)OCC(=O)[C@@]1(O)CC[C@H]2[C@@H]3CCC4=CC(=O)CC[C@]4(C)[C@H]3C(=O)C[C@@]21C [CORTISONE ACETATE]
Not Active: IC50 [1] | IC50 [2] | Ki [2] | IC50 (Glycine receptor) | IC50 [3] | IC50 [4] | IC50 [5] | IC50 [6] | Ki [6]

O=c1ccc2ccccc2o1 [COUMARIN]
Not Active: IC50 [1] | IC50 [2] | Ki [2] | IC50 (Glycine receptor) | IC50 [3] | IC50 [4] | IC50 [5] | IC50 [6] | Ki [6]

C/C=C/C[C@@H](C)[C@@H](O)[C@H]1C(=O)N[C@@H](CC)C(=O)N(C)CC(=O)N(C)[C@@H](CC(C)C)C(=O)N[C@@H](C(C)C)C(=O)N(C)[C@@H](CC(C)C)C(=O)N[C@@H](C)C(=O)N[C@H](C)C(=O)N(C)[C@@H](CC(C)C)C(=O)N(C)[C@@H](CC(C)C)C(=O)N(C)[C@@H](C(C)C)C(=O)N1C [CYCLOSPORINE]
Not Active: IC50 [1] | IC50 (Glycine receptor) | IC50 [3] | IC50 [4] | IC50 [5] | IC50 [6] | Ki [6]
